Assay [1] relates to human naïve CD4+ T cells. Description: proteome analysis of T cells activated in L-arginine-supplemented medium. The class given is cell-based. The procedure:
Samples were processed as described by (Hornburg et al., 2014). In brief, cell pellets were washed with PBS and lysed in 4% SDS, 10 mM HEPES (pH 8), 10 mM DTT. Cell pellets were heat-treated at 95° C. for 10 min and sonicated at 4° C. for 15 min (level 5, Bioruptor, Diagenode). Alkylation was performed in the dark for 30 min by adding 55 mM iodoacetamide (IAA). Proteins were precipitated overnight with acetone at −20° C. and resuspended the next day in 8 M Urea, 10 mM Hepes (pH 8). A two-step proteolytic digestion was performed. First, samples were digested at room temperature (RT) with LysC (1:50, w/w) for 3 h. Then, they were diluted 1:5 with 50 mM ammoniumbicarbonate (pH 8) and digested with trypsin (1:50, w/w) at RT overnight. The resulting peptide mixtures were acidified and loaded on C18 StageTips (Rappsilber et al., 2007). […]
Peptides were separated on an EASY-nLC 1000 HPLC system (Thermo Fisher Scientific, Odense, Denmark) coupled online to a Q Exactive mass spectrometer via a nanoelectrospray source (Thermo Fisher Scientific) (Michalski et al., 2011). […] Operational parameters were real-time monitored by the SprayQC software (Scheltema and Mann, 2012). […]
MaxQuant software (version 1.3.10.18) was used to analyze MS raw files (Cox and Mann, 2008). […] Nonlinear retention time alignment of all measured samples was performed in MaxQuant. […]

The test system of assay [2] is human naïve CD4+ T cells. Description: Cytokine analysis (IFN-gamma). The class given is cell-based. As for the experimental part:
10^5 naïve T cells were stimulated with plate bound anti-CD3 (5 μg ml^−1) and anti-CD28 (1 μg ml^−1) in the presence of IL-12 (10 ng/ml, R&D Systems) to polarize cells towards a Th1 phenotype. After 48 h, cells were transferred into U-bottom plates and IL-2 (10 ng/ml, R&D Systems) was added. Three days later, supernatants were collected and interferon-γ was quantified using FlowCytomix assays (eBioscience). Samples were analyzed on a BD LSR Fortessa FACS instrument and quantification was performed with the FlowCytomix Pro 3.0 software. For re-stimulation, cells were cultured for 5 h in the presence of 0.2 μM phorbol 12-myristate 13-acetate (PMA) and 1 μg/ml ionomycin (both from Sigma).

The next assay relates to 72 h-activated T cells. Briefly: Glucose consumption assay. The assay is classed as cell-based, human. Particulars: L-arginine supplementation, 24 h in fresh medium. The procedure:
FIG. 3. L-arginine globally influences metabolism of activated human T cells. […] Shown are only metabolites with a Log 2 fc>1 and an adjusted p value of <0.05; n=12 from two donors. Log 2 fold change between 0 and >+2 for L-Orn and L-Arg exemplarily indicated as “high”. (B) Differential analysis of the glycolytic pathway between naïve CD4^+ T cells cultured in L-Arg medium or Ctrl medium, 96 h after activation. Log 2 fold changes of proteins and metabolites are color-coded. […] 3-P-Glycerate and 2-P-Glycerate could not be distinguished as they have the same mass. (C) 72 h-activated T cells were plated in fresh medium and glucose consumption was determined enzymatically after 24 h; n=9 from three donors. (D) Seahorse experiment performed with activated (96 h) T cells from one donor. Oligomycin was injected after 56 min, FCCP after 96 min, and antimycin (to inhibit the respiratory chain) after 136 min. Data are representative of 5 independent experiments with different donors. (E,F) Relative oxygen consumption rate (OCR) (E) and relative spare respiratory capacity (SRC) (F) of activated (96 h) T cells; n=12 from three donors. ****p<0.0001 (Student's t-test).
The amount of glucose in media was determined using the Glucose (GO) Assay Kit from Sigma. Consumption was calculated as the difference between glucose content in reference medium (co-incubated medium without cells) and cell supernatants.

SMILES strings stand for the structures.

As to `N=C(N)NCCC[C@H](N)C(=O)O` [L-arginine], the Sirtuin-1 copy numbers result in the assay with human naïve CD4+ T cells [1] (L-Arg-medium vs normal medium) is recorded as “up-regulates”. Moreover, in the assay with human naïve CD4+ T cells [1] (L-arginine-supplemented medium), the “number of proteins with significantly different expression (out of 7,243)” value came to 202. For the same molecule, the IFN-gamma secretion result in the assay on human naïve CD4+ T cells [2] (L-arginine-supplemented medium, 10 ng/ml IL-12, supernatants after 5 days) was “much less”. Moreover, the “IFN-gamma secretion after re-activation” value in the assay on human naïve CD4+ T cells [2] (re-activation for 5 h with PMA/Ionomycin) is on record as “comparable amounts”. Further, the glucose consumption result in the assay with 72 h-activated T cells is “consumed less glucose”.
